Literature values as cited in paper PMC12642135 (Food and Waterborne Parasitology, 2025).
“Also recorded” adds a separate entry of the source.

System: Toxoplasma gondii
Parameters: method as in Kul et al., 2013
Conditions: lambs, applied from the second week pi (day 14 pi) onwards; ref Kul et al., 2013

Compound: Cc1cc(-n2c(=O)[nH]c(=O)n(C)c2=O)ccc1Oc1ccc(SC(F)(F)F)cc1 [toltrazuril]
- Reduction of tissue cysts: mildly reduced; also recorded: partial reduction
